Results taken from patent publication US4539037A, “Urease inhibited urea based fertilizer compositions containing N-aryl-N-aliphatic phosphorotriamide compounds” (Allied Corporation, priority 1983, dated 1985).

Assays:
soil urease [1] = experiment: Soil urease inhibition test (urea remaining after incubation in Cazenovia sandy loam, 25° C., 3 days); format: biochemical; conditions: for % Inhibition 20 μmg: 20 micrograms test compound per 20 g soil
Description: The inhibition tests were run in a New York soil (Cazenovia sandy loam, pH 7.2). […] The bottle was capped with perforated aluminum foil and incubated at 25° C. for 3 days prior to extraction with 100 mL 2M KCl containing 0.5 mg phenylmercuric acetate. The extracts were then analyzed for remaining urea using an auto analyzer. Percent inhibition was calculated as
% Inhibition=[-1(A-B/A-C)]×100
where A is urea recovered from unincubated sample (urea added to soil and immediately extracted); B is urea recovered from inhibited sample; and C is urea recovered from the control (uninhibited sample).

soil urease [2] = conditions: stated for a known compound; cited from earlier work
soil urease [3] = experiment: Urea hydrolyzed vs. time in soil at elevated temperature (35° C.); format: biochemical; conditions: soil at 35° C., 10 micrograms of urease inhibitor per gram of soil; for urease inhibiting effect at 35° C. (FIGURE, in words): sampled every two days, period of 12 days
Description: FIG. 1 is a graph of urea hydrolyzed vs. time at 35° C. using 10 micrograms of urease inhibitor per gram of soil.
Several representative N-alkyl-N-aryl phosphoric triamide compounds useful in the practice of this invention were tested to determine their relative effectiveness or urease inhibitors. The inhibition tests were run in a New York soil (Cazenovia sandy loam, pH 7.2). Evaluations (run in triplicate) consisted of applying 800 and 20 micrograms of test compound in 5 mL water and 42.8 mg urea in 1 mL water to 20 g air-dry soil in a glass bottle. The bottle was capped with perforated aluminum foil and incubated at 25° C. for 3 days prior to extraction with 100 mL 2M KCl containing 0.5 mg phenylmercuric acetate. The extracts were then analyzed for remaining urea using an auto analyzer. Percent inhibition was calculated as
Employing the procedure of EXAMPLES VII to IX a series of test were conducted to show improved efficiency of N-aliphatic-N-arylphosphoric triamides at elevated temperature as compared to the efficiency of phenylphosphorodiamidate, a prior art urease inhibitor. This test was conducted similarly to the test previously described, but soil samples were taken every two days and analyzed for urea content.

[4] = Table II, procedure of Examples VII to IX
[5] = Table II, procedure of Examples VII to IX, 800 micrograms test compound per 20 g soil

Row | Molecule | % Inhibition 20 μmg (soil urease [1]; [4]) | % Inhibition 800 μmg (soil urease [1]; [5]) | urease inhibiting effect at 35° C. (FIGURE, in words) (soil urease [3]) | also measured
1 | NP(N)(=O)Nc1ccccc1 [Comp II] | 19% | 74% |  | 
2 | NP(N)(=O)Nc1ccc([N+](=O)[O-])cc1 [Comp I] | 30% | 81% |  | 
3 | COc1ccc(N(C)P(N)(N)=O)cc1 [VIII] |  |  |  | % Inhibition 800 μmg (soil urease [1]; Table I, 800 micrograms test compound + 42.8 mg urea per 20 g air-dry soil (pH 7.2), triplicate): 47%
4 | NP(N)(=O)Oc1ccccc1 [phenyl phosphorodiamidate] |  |  | much less effective | urease inhibiting effect at 25° C. (in words) (soil urease [2]): excellent urease inhibiting effect; time to essentially complete urea hydrolysis (soil urease [3]): 6 days
5 | N-Methyl-N-(4-nitrophenyl) Phosphoric Triamide [IX] |  |  | excellent inhibitor | 
